Laboratory results published in patent US12325697B2 (Nimbus Clio, Inc., priority 2021, dated 2025).

Legend:
[1] = target: Recombinant human Cbl-b (aa 36-427) (Homo sapiens (Human), UniProt Q13191); assay: Cbl-b Biochemical Assay (TR-FRET); conditions: read-out: TR-FRET hCbl-b IC50
Method in brief: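 Two-step TR-FRET: 6 nM biotinylated Cbl-b preincubated 30-60 min with compound, then 60 min at RT with 1-2.5 nM Src-Zap70 and 0.5 mM ATP in HEPES pH 7.0 buffer, 1% DMSO. Stopped with 5 mM EDTA plus 100 nM UBE2D2-Ub-FL-BODIPY and 1 nM streptavidin-Tb, 60 min; 520 nm signal; IC50 from 4-parameter fit.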

[2] = tested on: Jurkat (clone E6-1) cells, NFAT luciferase reporter; assay: Jurkat Reporter Assay (NFAT Luciferase); type: cell-based; conditions: Homo sapiens, anti-CD3 stimulation, 6 hr, read-out: Jurkat NFAT EC50
[3] = tested on: Phospho-Zap70 (Y-319) in Jurkat wild-type (clone E6-1) cells; assay: Jurkat pZAP70 HTRF Assay; type: cell-based; conditions: Homo sapiens, anti-CD3 5 μg/ml, 3 hr, read-out: ZAP70 Jurkat EC50

Sequence of Recombinant human Cbl-b (aa 36-427) (Q13191 36-427): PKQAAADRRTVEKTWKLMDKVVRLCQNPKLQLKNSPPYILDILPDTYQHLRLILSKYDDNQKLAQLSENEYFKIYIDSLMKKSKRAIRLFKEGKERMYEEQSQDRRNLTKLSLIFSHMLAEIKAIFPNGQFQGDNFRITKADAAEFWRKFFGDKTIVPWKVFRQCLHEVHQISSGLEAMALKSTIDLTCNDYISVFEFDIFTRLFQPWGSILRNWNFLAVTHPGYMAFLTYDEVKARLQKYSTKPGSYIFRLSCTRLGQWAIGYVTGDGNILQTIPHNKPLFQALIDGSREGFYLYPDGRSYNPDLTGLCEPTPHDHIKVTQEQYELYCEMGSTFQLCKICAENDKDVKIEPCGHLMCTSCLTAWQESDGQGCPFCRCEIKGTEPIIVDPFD

SMILES	IC50 [1]	EC50 [2]	EC50 [3]
CC(=O)c1cc2c(c(C(F)(F)F)c1)CN(c1cc(-c3ccccc3-c3nncn3C)cc(C3CC3)n1)C2=O [AFS-1, 6-Acetyl-2-{6-cyclopropyl-4-[2-(4-methyl-1,2,4-triazol-3-yl)phenyl]pyridin-2-yl}-4-(trifluoromethyl)-3H-isoindol-1-one]	≤ 200 nM	200 to 1000 nM	10000 to 50000 nM
Cn1cnnc1-c1cc(F)ccc1-c1cc(C2CC2)nc(N2Cc3ccc(CNCC4(O)CCC4)cc3C2=O)c1 [AFH-1, 2-{6-Cyclopropyl-4-[4-fluoro-2-(4-methyl-1,2,4-triazol-3-yl)phenyl]pyridin-2-yl}-6-({[(1-hydroxycyclobutyl)methyl]amino}methyl)-3H-isoindol-1-one]	≤ 200 nM	< 200 nM	< 200 nM
Cn1cnnc1-c1cc(Cl)ccc1-c1cccc(N2Cc3ccc(CNCC4(O)CCCC4)cc3C2=O)c1 [AGU-10, 2-[4′-Chloro-2′-(4-methyl-1,2,4-triazol-3-yl)-[1,1′-biphenyl]-3-yl]-6-({[(1-hydroxycyclopentyl)methyl]amino}methyl)-3H-isoindol-1-one]	≤ 200 nM	< 200 nM	< 200 nM
